Results: ChEMBL document CHEMBL3808371, “Design, synthesis and biological evaluation of diaziridinyl quinone isoxazole hybrids” (Eur J Med Chem, 2016)
Converted amounts (≈) assume the structure as drawn. The source made the active and inactive calls. No cut-off for these calls is given here.

Tests used:
[1] = Cytotoxicity against human PC3 cells after 72 hrs by XTT assay; format: functional, cell-based; settings: PC-3, 72 h
[2] = system: A549; assay: Cytotoxicity against human A549 cells after 72 hrs by XTT assay; format: functional, cell-based; settings: A549, 72 h
[3] = system: Micrococcus luteus; assay: Bactericidal activity against Micrococcus luteus MTCC 2470 after 24 hrs by serial dilution method; format: functional; settings: MTCC 2470, 24 h
[4] = system: Escherichia coli; assay: Antimicrobial activity against Escherichia coli MTCC 739 after 24 hrs by well diffusion method; format: functional; settings: MTCC 739, 24 h
[5] = system: Staphylococcus aureus; assay: Antibiofilm activity against Staphylococcus aureus MTCC 96 after 24 hrs by crystal violet staining based assay; format: functional, organism-based; settings: MTCC 96, 24 h
[6] = system: Micrococcus luteus; assay: Antimicrobial activity against Micrococcus luteus MTCC 2470 after 24 hrs by well diffusion method; format: functional; settings: MTCC 2470, 24 h
[7] = system: Pseudomonas aeruginosa; assay: Antimicrobial activity against Pseudomonas aeruginosa MTCC 2453 after 24 hrs by well diffusion method; format: functional; settings: MTCC 2453, 24 h
[8] = system: Staphylococcus aureus; assay: Bactericidal activity against Staphylococcus aureus MLS16 MTCC 2940 after 24 hrs by serial dilution method; format: functional; settings: MLS16 MTCC 2940, 24 h
[9] = system: Staphylococcus aureus; assay: Bactericidal activity against Staphylococcus aureus MTCC 96 after 24 hrs by serial dilution method; format: functional; settings: MTCC 96, 24 h
[10] = system: Raoultella planticola; assay: Bactericidal activity against Klebsiella planticola MTCC 530 after 24 hrs by serial dilution method; format: functional; settings: MTCC 530, 24 h
[11] = system: Candida albicans; assay: Antimicrobial activity against Candida albicans MTCC 3017 after 24 hrs by well diffusion method; format: functional
[12] = system: Bacillus subtilis; assay: Antimicrobial activity against Bacillus subtilis MTCC 121 after 24 hrs by well diffusion method; format: functional; settings: MTCC 121, 24 h
[13] = system: Staphylococcus aureus; assay: Antibiofilm activity against Staphylococcus aureus MLS16 MTCC 2940 after 24 hrs by crystal violet staining based assay; format: functional, organism-based; settings: MLS16 MTCC 2940, 24 h
[14] = system: Raoultella planticola; assay: Antimicrobial activity against Klebsiella planticola MTCC 530 after 24 hrs by well diffusion method; format: functional; settings: MTCC 530, 24 h
[15] = system: Bacillus subtilis; assay: Antibiofilm activity against Bacillus subtilis MTCC 121 after 24 hrs by crystal violet staining based assay; format: functional, organism-based; settings: MTCC 121, 24 h
[16] = system: Staphylococcus aureus; assay: Antimicrobial activity against Staphylococcus aureus MTCC 96 after 24 hrs by well diffusion method; format: functional; settings: MTCC 96, 24 h
[17] = system: Micrococcus luteus; assay: Antibiofilm activity against Micrococcus luteus MTCC 2470 after 24 hrs by crystal violet staining based assay; format: functional, organism-based; settings: MTCC 2470, 24 h
[18] = system: Raoultella planticola; assay: Antibiofilm activity against Klebsiella planticola MTCC 530 after 24 hrs by crystal violet staining based assay; format: functional, organism-based; settings: MTCC 530, 24 h
[19] = system: Staphylococcus aureus; assay: Antimicrobial activity against Staphylococcus aureus MLS16 MTCC 2940 after 24 hrs by well diffusion method; format: functional; settings: MLS16 MTCC 2940, 24 h
[20] = system: Bacillus subtilis; assay: Bactericidal activity against Bacillus subtilis MTCC 121 after 24 hrs by serial dilution method; format: functional; settings: MTCC 121, 24 h

## COc1ccc(OC)c(-c2cc(-c3ccc(C(=O)N4CCCCC4)s3)on2)c1
[1]
  IC50: > 30 µM
[2]
  IC50: > 30 µM

## CN(C)C(=O)c1ccc(-c2cc(C3=C(N4CC4)C(=O)C=C(N4CC4)C3=O)no2)s1
[3]
  MBC: 125 µg/mL (≈ 305 µM)
[4]
  MIC: > 125 µg/mL
[5]
  IC50: 9.8 µM
[6]
  MIC: 62.5 µg/mL (≈ 152 µM)
[7]
  MIC: > 125 µg/mL
[8]
  MBC: 31.2 µg/mL (≈ 76 µM)
[9]
  MBC: 31.2 µg/mL (≈ 76 µM)
[10]
  MBC: 31.2 µg/mL (≈ 76 µM)
[11]; MTCC 3017, 24 h
  MIC: 15.6 µg/mL (≈ 38 µM)
[12]
  MIC: 3.9 µg/mL (≈ 9.5 µM)
[13]
  IC50: 10.1 µM
[1]
  IC50: > 30 µM
[14]
  MIC: 7.8 µg/mL (≈ 19 µM)
[15]
  IC50: 2.2 µM
[2]
  IC50: 1.5 µM
[16]
  MIC: 15.6 µg/mL (≈ 38 µM)
[17]
  IC50: 38.9 µM
[18]
  IC50: 6.1 µM
[19]
  MIC: 15.6 µg/mL (≈ 38 µM)
[20]
  MBC: 7.8 µg/mL (≈ 19 µM)

## O=C(O)c1cn(C2CC2)c2cc(N3CCNCC3)c(F)cc2c1=O [CIPROFLOXACIN]
[3]
  MBC: 0.9 µg/mL (≈ 2.72 µM)
[4]
  MIC: 0.9 µg/mL (≈ 2.72 µM)
[5]
  IC50: 0.7 µM
[6]
  MIC: 0.9 µg/mL (≈ 2.72 µM)
[7]
  MIC: 0.9 µg/mL (≈ 2.72 µM)
[8]
  MBC: 1.9 µg/mL (≈ 5.73 µM)
[9]
  MBC: 0.9 µg/mL (≈ 2.72 µM)
[10]
  MBC: 1.9 µg/mL (≈ 5.73 µM)
[11]
  MIC: inactive
[12]
  MIC: 0.9 µg/mL (≈ 2.72 µM)
[14]
  MIC: 0.9 µg/mL (≈ 2.72 µM)
[16]
  MIC: 0.9 µg/mL (≈ 2.72 µM)
[17]
  IC50: 0.8 µM
[18]
  IC50: 0.6 µM
[19]
  MIC: 0.9 µg/mL (≈ 2.72 µM)
[20]
  MBC: 1.9 µg/mL (≈ 5.73 µM)

## COc1ccc(OC)c(-c2cc(-c3ccc(C(=O)N(C)Cc4ccccc4)s3)on2)c1
[1]
  IC50: > 30 µM
[2]
  IC50: > 30 µM

## COc1ccc(OC)c(-c2cc(-c3ccc(C(=O)NC4CC4)s3)on2)c1
[1]
  IC50: 7.8 µM
[2]
  IC50: > 30 µM

## O=C1C=C(N2CC2)C(=O)C(c2cc(-c3ccc(C(=O)NCC4CC4)s3)on2)=C1N1CC1
[3]
  MBC: > 125 µg/mL
[4]
  MIC: > 125 µg/mL
[6]
  MIC: > 125 µg/mL
[7]
  MIC: > 125 µg/mL
[8]
  MBC: > 125 µg/mL
[9]
  MBC: > 125 µg/mL
[10]
  MBC: > 125 µg/mL
[11]; MTCC 3017, 24 h
  MIC: 15.6 µg/mL (≈ 35.7 µM)
[12]
  MIC: 15.6 µg/mL (≈ 35.7 µM)
[1]
  IC50: 3.5 µM
[14]
  MIC: > 125 µg/mL
[15]
  IC50: 9.8 µM
[2]
  IC50: 2.1 µM
[16]
  MIC: > 125 µg/mL
[19]
  MIC: > 125 µg/mL
[20]
  MBC: 31.2 µg/mL (≈ 71.5 µM)

## COc1ccc(OC)c(-c2cc(-c3ccc(C(=O)N(C)C)s3)on2)c1
[1]
  IC50: > 30 µM
[2]
  IC50: > 30 µM

## CN(C)C(=O)c1ccc(-c2cc(C3=CC(=O)C=CC3=O)no2)s1
[1]
  IC50: 7.2 µM
[2]
  IC50: > 30 µM

## COc1ccc(OC)c(-c2cc(-c3ccc(C(=O)N4CCCC4)s3)on2)c1
[1]
  IC50: > 30 µM
[2]
  IC50: > 30 µM

## O=C1C=C(N2CC2)C(=O)C(c2cc(-c3ccc(C(=O)N4CCCC4)s3)on2)=C1N1CC1
[3]
  MBC: 62.5 µg/mL (≈ 143 µM)
[4]
  MIC: > 125 µg/mL
[6]
  MIC: 31.2 µg/mL (≈ 71.5 µM)
[7]
  MIC: > 125 µg/mL
[8]
  MBC: 31.2 µg/mL (≈ 71.5 µM)
[9]
  MBC: 31.2 µg/mL (≈ 71.5 µM)
[10]
  MBC: 31.2 µg/mL (≈ 71.5 µM)
[11]; MTCC 3017, 24 h
  MIC: 31.2 µg/mL (≈ 71.5 µM)
[12]
  MIC: 7.8 µg/mL (≈ 17.9 µM)
[1]
  IC50: 1 µM
[14]
  MIC: 15.6 µg/mL (≈ 35.7 µM)
[2]
  IC50: 1.7 µM
[16]
  MIC: 15.6 µg/mL (≈ 35.7 µM)
[19]
  MIC: 15.6 µg/mL (≈ 35.7 µM)
[20]
  MBC: 15.6 µg/mL (≈ 35.7 µM)

## COc1ccc(OC)c(-c2cc(-c3ccc(C(=O)NCC4CC4)s3)on2)c1
[1]
  IC50: > 30 µM
[2]
  IC50: > 30 µM

## O=C1C=CC(=O)C(c2cc(-c3ccc(C(=O)N4CCCCC4)s3)on2)=C1
[1]
  IC50: > 30 µM
[2]
  IC50: > 30 µM

## O=C1C=CC(=O)C(c2cc(-c3ccc(C(=O)N4CCCC4)s3)on2)=C1
[1]
  IC50: < 30 µM
[2]
  IC50: > 30 µM

## COc1ccc(OC)c(-c2cc(-c3ccc(C(=O)N(C)Cc4ccc(F)cc4)s3)on2)c1
[1]
  IC50: > 30 µM
[2]
  IC50: > 30 µM
